| melting point [°C] | SMILES |
| --- | --- |
| 144 to 147 | CSc1nc(-c2cc(C(=O)N(C)C)ccc2C)c2c(n1)N(c1c(F)cccc1F)C(=O)NC2 [Example 73, 3-[8-(2,6-difluorophenyl)-2-(methylthio)-7-oxo-5,6,7,8-tetrahydropyrimido[4,5-d]pyrimidin-4-yl]-N,N,4-trimethylbenzamide] |
| 214.2 to 217.5 | Cc1c(F)cc(C(=O)NC2CC2)cc1-c1nc(NC(CO)CO)nc2c1ccc(=O)n2-c1c(F)cccc1F [Example 49, N-cyclopropyl-3-(8-(2,6-difluorophenyl)-2-{[2-hydroxy-1-(hydroxymethyl)ethyl]amino}-7-oxo-7,8-dihydropyrido[2,3-d]pyrimidin-4-yl)-5-fluoro-4-methylbenzamide] |

Source: patent US20080096905A1, “Process For Preparing Pyrido[2,3-D]Pyrimidin-7-One And 3,4-Dihydropyrimido{4,5-D}Pyrimidin-2(1H)-One Derivatives” (Glaxo Group Limited, priority 2005, published 2008)
